Measurements: patent US4740233A, “Substituted 1,2,4-triazolo[1,5-a]-pyrimidine-2-sulfonamides and compositions and methods of controlling undesired vegetation and suppressing the nitrification of ammonium nitrogen in soil” (The Dow Chemical Company, priority 1986, dated 1988)

Assays:
velvetleaf = assay: Preemergent control of plant species; assay type: in vivo, Abutilon theophrasti; conditions: Abutilon theophrasti, pre-emergence, 336 h; 0.25 lb/acre; read-out: percent preemergent control
Method: (§1) The seeds of various species of plants were planted in beds of good agricultural soil in a greenhouse. A number of compositions of the present invention, generally in the nature of an aqueous emulsion, were applied at rates listed in the table so as to deposit a predetermined amount of active ingredients uniformly throughout the surface of the bed. Another seed bed was treated only with water to serve as a control. After treatment the seed beds were maintained for two weeks under greenhouse conditions conducive for good plant growth and watered as necessary. Control refers to the reduction in growth compared to the observed results of the same untreated species.

yellow foxtail = assay: Preemergent control of plant species; assay type: in vivo, Setaria lutescens; conditions: Setaria, pre-emergence, 336 h; 0.25 lb/acre; read-out: percent preemergent control
Method: as §1

rape = assay: Preemergent control of plant species; assay type: in vivo, Brassica napus; conditions: Brassica napus, pre-emergence, 336 h; 0.25 lb/acre; read-out: percent preemergent control
Method: as §1

cotton = assay: Preemergent control of plant species; assay type: in vivo, Gossypium spp.; conditions: Gossypium hirsutum, pre-emergence, 336 h; 0.25 lb/acre; read-out: percent preemergent control
Method: as §1

corn = assay: Preemergent control of plant species; assay type: in vivo, Zea mays; conditions: Zea mays, pre-emergence, 336 h; 0.25 lb/acre; read-out: percent preemergent control
Method: as §1

jimsonweed = assay: Preemergent control of plant species; assay type: in vivo, Datura stramonium; conditions: Datura stramonium, pre-emergence, 336 h; 0.25 lb/acre; read-out: percent preemergent control
Method: as §1

wild oats = assay: Preemergent control of plant species; assay type: in vivo; conditions: Avena fatua, pre-emergence, 336 h; 0.25 lb/acre; read-out: percent preemergent control
Method: as §1

yellow nutsedge = assay: Preemergent control of plant species; assay type: in vivo, Cyperus esculentus; conditions: Cyperus, pre-emergence, 336 h; 0.25 lb/acre; read-out: percent preemergent control
Method: as §1

[1] = tested on: nitrification of ammonium nitrogen; assay: Suppression of nitrification of ammonium nitrogen in soil; conditions: 27° C.
Method: A sufficient volume of water was added to 20 g of the soil in a wide-mouth, screw-cap, 4-ounce, glass bottle, such that the moisture content of the mixture was made equal to the 1/3 bar tension value for that soil. The mixture was thoroughly mixed before sealing. […] Acetone slows the rate of soil nitrification and its concentration must be carefully controlled. Single samples of each test chemical were incubated for two weeks at 27° C.
The experiment comprised the following types of samples:
The soil samples were analyzed as follows: Sufficient ammonium sulfate extracting solution was added to the sample, such that the total volume of added water was 50 ml (included water added during sample preparation). The capped mixture was shaken 10 minutes to solubilize nitrate and the soil particulates were allowed to settle. The nitrate concentration in the water phase was determined with a nitrate-specific ion electrode such as Orion Model 93-07.
The non-nitrate nitrogen remaining (% NH4 -N remaining) in the soil after two weeks (performance value) was calculated as follows: [formula]

annual morning glory = assay: Preemergent control of plant species; assay type: in vivo, Ipomoea spp.; conditions: Ipomoea, pre-emergence, 336 h; 0.25 lb/acre; read-out: percent preemergent control
Method: as §1

soybean = assay: Preemergent control of plant species; assay type: in vivo, Glycine max.; conditions: Glycine max, pre-emergence, 336 h; 0.25 lb/acre; read-out: percent preemergent control
Method: as §1

rice = assay: Preemergent control of plant species; assay type: in vivo, Oryza sativa; conditions: Oryza sativa, pre-emergence, 336 h; 0.25 lb/acre; read-out: percent preemergent control
Method: as §1

johnson grass = assay: Preemergent control of plant species; assay type: in vivo, Sorghum halepense; conditions: Sorghum halepense, pre-emergence, 336 h; 0.25 lb/acre; read-out: percent preemergent control
Method: as §1

sugar beet = assay: Preemergent control of plant species; assay type: in vivo, Beta saccharifera; conditions: Beta vulgaris, pre-emergence, 336 h; 0.25 lb/acre; read-out: percent preemergent control
Method: as §1

barnyardgrass = assay: Preemergent control of plant species; assay type: in vivo, Echinochloa crusgalli; conditions: Echinochloa crus-galli, pre-emergence, 336 h; 0.25 lb/acre; read-out: percent preemergent control
Method: as §1

sorghum = assay: Preemergent control of plant species; assay type: in vivo, Sorghum vulgare; conditions: Sorghum, pre-emergence, 336 h; 0.25 lb/acre; read-out: percent preemergent control
Method: as §1

wheat = assay: Preemergent control of plant species; assay type: in vivo, Triticum aestivum; conditions: Triticum aestivum, pre-emergence, 336 h; 0.25 lb/acre; read-out: percent preemergent control
Method: as §1

| Structure (SMILES) | pest or weed control at 280.212 g/ha (velvetleaf) [%] | pest or weed control at 280.212 g/ha (yellow foxtail) [%] | plant injury at 280.212 g/ha (rape) [%] | plant injury at 280.212 g/ha (cotton) [%] | plant injury at 280.212 g/ha (corn) [%] | pest or weed control at 280.212 g/ha (jimsonweed) [%] | pest or weed control at 280.212 g/ha (wild oats) [%] | pest or weed control at 280.212 g/ha (yellow nutsedge) [%] | % NH4-N Remaining After 2 Weeks Incubation ([1]; 0.06 ppm) [%] | % NH4-N Remaining After 2 Weeks Incubation ([1]; 0.25 ppm) [%] | % NH4-N Remaining After 2 Weeks Incubation ([1]; 1 ppm) [%] | % NH4-N Remaining After 2 Weeks Incubation ([1]; 4 ppm) [%] | pest or weed control at 280.212 g/ha (annual morning glory) [%] | plant injury at 280.212 g/ha (soybean) [%] | plant injury at 280.212 g/ha (rice) [%] | pest or weed control at 280.212 g/ha (johnson grass) [%] | plant injury at 280.212 g/ha (sugar beet) [%] | pest or weed control at 280.212 g/ha (barnyardgrass) [%] | plant injury at 280.212 g/ha (sorghum) [%] | plant injury at 280.212 g/ha (wheat) [%] |
| --- | --- | --- | --- | --- | --- | --- | --- | --- | --- | --- | --- | --- | --- | --- | --- | --- | --- | --- | --- | --- |
| Cc1ccc(Cl)c(NS(=O)(=O)c2nc3nc(C)c(Cl)c(C)n3n2)c1Cl [Compound 199] | 70 | 0 | 100 | 20 | 0 | 0 | 0 | 0 | 40 | 63 | 78 | 88 | 20 | 70 | 0 | 0 | 90 |  |  |  |
| CCCCCCCCCC(=O)N(c1c(F)cccc1F)S(=O)(=O)c1nc2nc(C)ccn2n1 [Compound 287] | 100 | 100 | 100 | 100 | 60 | 100 |  | 100 |  |  |  |  | 100 | 30 | 100 | 100 | 100 | 100 | 100 | 70 |
| O=S(=O)(Nc1c(F)cccc1F)c1nc2ncccn2n1 [Compound 138] | 90 | 90 | 100 | 100 | 30 | 20 |  | 80 |  |  |  |  | 20 | 50 | 50 | 90 | 90 | 0 | 50 | 10 |
| CCCC(=O)N(c1c(F)cccc1F)S(=O)(=O)c1nc2nc(C)ccn2n1 [Compound 283] | 100 | 100 | 100 | 100 | 40 | 95 |  | 100 |  |  |  |  | 80 | 20 | 100 | 100 | 100 | 100 | 100 | 100 |
| Cc1cc(C(F)(F)F)n2nc(S(=O)(=O)Nc3c(Cl)ccc(C)c3Cl)nc2n1 [Compound 229] | 90 | 0 | 100 | 100 | 40 | 90 |  | 100 |  |  |  |  | 100 | 30 | 10 | 0 | 100 | 0 | 90 | 0 |
| COc1cccc(C(F)(F)F)c1NS(=O)(=O)c1nc2ncccn2n1 [Compound 141] | 100 | 100 | 100 | 100 | 100 | 100 |  | 75 |  |  |  |  | 100 | 100 | 100 | 100 | 100 | 95 | 100 | 95 |
| COC(=O)c1cccc(C)c1NS(=O)(=O)c1nc2nccc(C)n2n1 [Compound 189] | 100 | 80 | 100 | 100 | 80 | 80 |  | 100 |  |  |  |  | 50 | 80 | 90 | 70 | 100 | 80 | 100 | 80 |
| COc1nc2nc(S(=O)(=O)Nc3c([N+](=O)[O-])ccc(C)c3C)nn2cc1C [Compound 222] | 100 | 30 | 100 | 100 | 40 | 100 |  | 50 |  |  |  |  | 90 | 100 | 90 | 100 | 100 | 0 | 50 | 0 |
| Cc1ccc(Cl)c(NS(=O)(=O)c2nc3ncccn3n2)c1Cl [Compound 139] | 100 | 100 | 100 | 100 | 70 | 100 |  | 100 |  |  |  |  | 90 | 50 | 90 | 100 | 100 | 80 | 100 | 80 |
| CCC(=O)N(c1c(F)cccc1F)S(=O)(=O)c1nc2nc(C)ccn2n1 [Compound 276] | 100 | 100 | 100 | 80 | 60 | 100 |  | 100 |  |  |  |  | 90 | 10 | 90 | 90 | 100 | 100 | 100 | 80 |
| COc1nc2nc(S(=O)(=O)Nc3c(C)cccc3[N+](=O)[O-])nn2cc1C [Compound 221] | 100 | 100 | 100 | 100 | 90 | 100 |  | 100 |  |  |  |  | 100 | 100 | 100 | 70 | 100 | 100 | 100 | 90 |
